Reference: publication PMC9191229, “Molecular and Biochemical Analysis of Duplicated Cytosolic CuZn Superoxide Dismutases of Rice and in silico Analysis in Plants” (Frontiers in Plant Science, 2022)

What was measured:
OsCSD4 = tested on: T1, OsCSD4; assay: SOD activity, NBT reduction assay (NADH/PMS), A560; assay type: biochemical, Oryza sativa; conditions: 1 h pre-incubation with DDC (0-2.0 mM); 1 U enzyme; Tris-HCl 50 mM pH 8.0, EDTA 0.1 mM
T1 construct: gene SODCC2

OsCSD1 = tested on: T2, OsCSD1; assay: SOD activity, NBT reduction assay (NADH/PMS), A560; assay type: biochemical, Oryza sativa; conditions: 1 h pre-incubation with DDC (0-2.0 mM); 1 U enzyme; Tris-HCl 50 mM pH 8.0, EDTA 0.1 mM
T2 construct: gene SODCC1

- IC50 (OsCSD4): 500 µM
- IC50 (OsCSD1): 520 µM
Structure (SMILES): CCN(CC)C(=S)S [diethyldithiocarbamate]
